Results taken from PMC3256138, “Disease Progression in MRL/lpr Lupus-Prone Mice Is Reduced by NCS 613, a Specific Cyclic Nucleotide Phosphodiesterase Type 4 (PDE4) Inhibitor” (PLoS ONE, 2012).
Read-outs that look alike come from different tables or passages of the source.

Legend:
PDE1 = test: IC50 on purified PDE1 isozyme (calmodulin-activated); type: biochemical, bovine; settings: 1 µM cGMP substrate, CaM modulator; mean±s.e.m. of three experiments
Procedure: (§1) PDE1, PDE3, PDE4 and PDE5 were isolated by anion exchange chromatography from bovine aortic smooth muscle cytosolic fraction. PDE2 was isolated from human platelets following the method described in [44]. Purified PDEs were stored as small aliquots at −80°C until use. PDE activity was determined at a substrate concentration of 1 µM cAMP or cGMP in the presence of 10,000 cpm [^3H]-cAMP or -cGMP as tracers. PDE1 activity was assessed at 1 µM cGMP in calmodulin-activated state (18 nM calmodulin with 10 µM CaCl2). PDE2 activity was assessed at 1 µM cAMP in activated state (+5 µM cGMP), and PDE3 and PDE4 activities were assessed at 1 µM cAMP in the presence of 1 mM EGTA. […] PDE5 activity was measured at 1 µM cGMP in the presence of 1 mM of EGTA. […] This concentration of DMSO had no effect when tested in control preparation.

PDE2 = biological target: T1, PDE2 (Homo sapiens, UniProt O00408); test: IC50 on purified PDE2 isozyme (cGMP-activated); type: biochemical; settings: 1 µM cAMP substrate, cGMP modulator; mean±s.e.m. of three experiments
T1 construct: PDE2 was isolated from human platelets; from tissue; host or cells: human platelets
Procedure: as §1

PDE4 [1] = test: IC50 on purified PDE4 isozyme; type: biochemical, bovine; settings: for IC50: 1 µM cAMP substrate, mean±s.e.m. of three experiments
Procedure: as §1

PBLs from MRL/lpr mice = test: Ex vivo LPS-induced TNFα secretion by PBLs from treated MRL/lpr mice; type: in vivo, mouse; settings: PBLs of 14 week-old mice treated i.v. (100 µg pentoxifylline or denbufylline, 30 µg NCS 613); 5 µg/mL LPS, 24 h
Procedure: Blood samples were pooled from groups of seven 14 week-old treated mice. PBLs were purified by density separation (Lympholyte-M, d = 1.0875; Cedarlane, Hornby, Canada), washed three times, and resuspended at 5×10^6 cells/ml in L-alanyl-L-glutamine-enriched RPMI 1640 medium (Cambrex, Verviers, Belgium) containing 10% (v/v) fetal calf serum (Dutscher, Brumath, France), HEPES, gentamycin and β-mercaptoethanol. They were cultured in duplicate using 5×10^5 cells/well in the presence of 5 µg/mL LPS from E. coli. Culture supernatants were collected after 24 h and stored frozen at −20°C. TNFα levels were determined using a double-sandwich ELISA (PharMingen, San Diego, CA; detection limit 30 pg/mL) according to the manufacturer's instructions.

MRL/lpr lupus-prone mice = test: Treatment of MRL/lpr lupus-prone mice with PDE inhibitors: proteinuria, survival, anti-DNA antibodies; settings: for Median survival time / Mice with positive proteinuria: 100 µg i.v. at 5, 7, 9 and 13 weeks; for Mice with positive proteinuria: at 18 weeks of age; for Proteinuria level compared to the control group / Age at which treated mice started dying: i.v. at 5, 7, 9 and 13 weeks; for Proteinuria level compared to the control group: 100 µg pentoxifylline or 30 µg NCS 613; for Age at which treated mice started dying: control 17 weeks
Procedure: All mice were monitored regularly for different clinical and biological parameters over 26 weeks. Measurements of outcome included the evaluation of survival and proteinuria measured on a fresh urine sample. Protein levels were determined using colored strips (Albutix; Bayer Diagnostics, Basingstoke, UK) and scored at values corresponding to 30, 100, 300 and >2000 mg/dL.

PDE5 = biological target: T2, PDE5 (Bos taurus, UniProt Q28156); test: IC50 on purified PDE5 isozyme; type: biochemical, bovine; settings: 1 µM cGMP substrate; mean±s.e.m. of three experiments
T2 construct: isolated by anion exchange chromatography from bovine aortic smooth muscle cytosolic fraction; from tissue; host or cells: bovine aortic smooth muscle cytosolic fraction
Procedure: as §1

human recombinant PDE4A = biological target: T3, human recombinant PDE4A (Homo sapiens, UniProt P27815); test: IC50 on human recombinant PDE4A; type: biochemical
T3 construct: gift of Ted J. Torphy (SmithKline Beecham Pharmaceuticals, King of Prussia, PA, USA)

human recombinant PDE4D = biological target: T4, human recombinant PDE4D (Homo sapiens, UniProt Q08499); test: IC50 on human recombinant PDE4D; type: biochemical
T4 construct: gift of Ted J. Torphy (SmithKline Beecham Pharmaceuticals, King of Prussia, PA, USA)

[2] = biological target: High Affinity Rolipram Binding Site (HARBS); test: 3H-rolipram binding assay on rat brain membranes; settings: rat brain membrane, 4 nM 3H-rolipram; read-out: Ki toward 3H-rolipram binding (HARBS)
Procedure: The assay was done in 50 mM N-Tris hydroxymethyl methyl-2-aminoethane sulfonic acid/NaOH buffer, pH 7.6, containing 10 mM MgCl2, 0.1 M NaCl and 100 µM 5′AMP. […] Binding assays were started by the addition of 100 µL of rat brain membrane (0.9 mg protein/mL) to the reaction mixture and conducted at 23°C for 1 h under agitation and stopped by the addition of 3 mL of ice-cold reaction buffer and rapid vacuum filtration through Whatman GF/B filters that have been soaked in 0.3% (v/v) polyethylenimine. Filters were washed twice (3 ml of ice-cold reaction buffer without 5′AMP), dried and counted by liquid scintillation. […] Ki and confidence interval values of binding studies were determined by using one site fit Ki GraphPad Prism5 analysis.

acid gastric secretion = system: acid gastric secretion; set-up: method as in PMID 10640302; settings: cited from earlier work
PDE4 [3] = system: PDE4; set-up: method as in PMID 9191951; settings: text value with reference; cited from earlier work
[4] = Solubility in injection vehicle PBS-10% ethanol; type: physicochemical; settings: at 100 µg/100 µL
human recombinant PDE4C = biological target: T5, human recombinant PDE4C (Homo sapiens, UniProt Q08493); test: IC50 on human recombinant PDE4C; type: biochemical; settings: 1 µM cAMP; with confidence interval
T5 construct: gift of Ted J. Torphy (SmithKline Beecham Pharmaceuticals, King of Prussia, PA, USA)

PBLs from SLE patients = test: TNFα secretion by PBLs from SLE patients; type: cell-based, human; settings: for Effect on LPS-induced TNFα production: 5 µg/mL LPS, 24 h
Procedure: PBLs were isolated by centrifugation on Ficoll-Histopaque (Sigma-Aldrich) and cultured as described above using 5×10^5 cells/well. […] Culture supernatants were collected 24 h later and stored frozen at −20°C before TNFα level determination, as described above.

human PBLs = system: human PBLs; set-up: method as in PMID 10640302; settings: read-out: IC50 LPS-induced TNFα secretion by human PBLs; cited from earlier work
human recombinant PDE4B = biological target: T6, human recombinant PDE4B (Homo sapiens, UniProt Q07343); test: IC50 on human recombinant PDE4B; type: biochemical
T6 construct: gift of Ted J. Torphy (SmithKline Beecham Pharmaceuticals, King of Prussia, PA, USA)

PDE3 = biological target: T7, PDE3 (Bos taurus, UniProt A0A3Q1M1E8); test: IC50 on purified PDE3 isozyme; type: biochemical, bovine; settings: 1 µM cAMP substrate; mean±s.e.m. of three experiments
T7 sequence (A0A3Q1M1E8 1-1126): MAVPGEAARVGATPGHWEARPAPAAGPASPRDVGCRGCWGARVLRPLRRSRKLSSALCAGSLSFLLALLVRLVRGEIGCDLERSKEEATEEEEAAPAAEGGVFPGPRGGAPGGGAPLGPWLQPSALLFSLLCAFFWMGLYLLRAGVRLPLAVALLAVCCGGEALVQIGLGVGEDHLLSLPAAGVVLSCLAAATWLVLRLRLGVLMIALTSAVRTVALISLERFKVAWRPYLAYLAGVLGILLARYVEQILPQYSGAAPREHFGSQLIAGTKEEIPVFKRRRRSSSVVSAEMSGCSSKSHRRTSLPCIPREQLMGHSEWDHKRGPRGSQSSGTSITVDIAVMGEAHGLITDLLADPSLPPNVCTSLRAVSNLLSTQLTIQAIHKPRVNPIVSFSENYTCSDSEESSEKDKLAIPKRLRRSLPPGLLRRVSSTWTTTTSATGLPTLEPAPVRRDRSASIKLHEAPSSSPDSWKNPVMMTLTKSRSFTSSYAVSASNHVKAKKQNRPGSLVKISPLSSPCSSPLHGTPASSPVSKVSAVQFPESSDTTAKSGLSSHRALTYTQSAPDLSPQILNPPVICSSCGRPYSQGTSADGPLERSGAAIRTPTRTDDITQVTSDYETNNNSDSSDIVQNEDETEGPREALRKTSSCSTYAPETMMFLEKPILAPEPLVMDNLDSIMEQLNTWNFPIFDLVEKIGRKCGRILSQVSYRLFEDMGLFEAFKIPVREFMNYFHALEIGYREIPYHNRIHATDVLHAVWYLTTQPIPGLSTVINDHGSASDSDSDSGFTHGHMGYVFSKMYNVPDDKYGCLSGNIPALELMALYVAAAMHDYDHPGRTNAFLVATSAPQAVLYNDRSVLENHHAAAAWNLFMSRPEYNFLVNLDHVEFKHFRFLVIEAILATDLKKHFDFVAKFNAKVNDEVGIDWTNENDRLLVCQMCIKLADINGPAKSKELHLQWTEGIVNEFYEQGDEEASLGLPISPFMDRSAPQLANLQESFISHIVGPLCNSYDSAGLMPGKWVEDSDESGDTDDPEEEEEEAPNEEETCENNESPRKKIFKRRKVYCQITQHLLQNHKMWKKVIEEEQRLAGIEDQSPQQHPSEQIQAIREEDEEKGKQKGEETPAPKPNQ
Procedure: PDE2 was isolated from human platelets following the method described in [44]. Purified PDEs were stored as small aliquots at −80°C until use. PDE activity was determined at a substrate concentration of 1 µM cAMP or cGMP in the presence of 10,000 cpm [^3H]-cAMP or -cGMP as tracers. PDE1 activity was assessed at 1 µM cGMP in calmodulin-activated state (18 nM calmodulin with 10 µM CaCl2). […] This concentration of DMSO had no effect when tested in control preparation.

[5] = 1 µM cAMP, with confidence interval

T1 sequence (O00408 whole entry): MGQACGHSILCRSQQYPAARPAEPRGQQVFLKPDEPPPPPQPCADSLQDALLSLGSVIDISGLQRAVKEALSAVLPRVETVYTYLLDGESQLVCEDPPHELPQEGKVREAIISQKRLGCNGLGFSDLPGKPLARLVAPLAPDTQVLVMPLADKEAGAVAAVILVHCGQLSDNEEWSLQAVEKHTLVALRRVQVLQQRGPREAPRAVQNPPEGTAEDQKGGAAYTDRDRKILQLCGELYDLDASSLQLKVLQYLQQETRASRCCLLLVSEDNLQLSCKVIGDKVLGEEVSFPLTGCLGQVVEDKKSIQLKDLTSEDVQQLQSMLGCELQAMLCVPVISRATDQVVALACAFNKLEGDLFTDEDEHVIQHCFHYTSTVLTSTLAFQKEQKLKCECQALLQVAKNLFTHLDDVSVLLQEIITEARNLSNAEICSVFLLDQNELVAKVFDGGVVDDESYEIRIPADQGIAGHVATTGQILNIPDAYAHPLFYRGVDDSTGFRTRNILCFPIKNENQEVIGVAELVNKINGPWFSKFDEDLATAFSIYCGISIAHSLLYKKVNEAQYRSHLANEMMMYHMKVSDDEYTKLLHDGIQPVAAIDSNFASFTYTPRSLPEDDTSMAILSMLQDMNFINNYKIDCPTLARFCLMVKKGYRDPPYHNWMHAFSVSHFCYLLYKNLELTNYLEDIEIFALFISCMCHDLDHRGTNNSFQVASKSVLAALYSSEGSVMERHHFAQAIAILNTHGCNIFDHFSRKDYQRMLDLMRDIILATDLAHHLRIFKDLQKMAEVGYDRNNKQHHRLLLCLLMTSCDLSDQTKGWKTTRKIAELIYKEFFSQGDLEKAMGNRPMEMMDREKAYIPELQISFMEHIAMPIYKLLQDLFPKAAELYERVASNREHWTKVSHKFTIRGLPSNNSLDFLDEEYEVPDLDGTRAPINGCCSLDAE
T4 sequence (Q08499 whole entry): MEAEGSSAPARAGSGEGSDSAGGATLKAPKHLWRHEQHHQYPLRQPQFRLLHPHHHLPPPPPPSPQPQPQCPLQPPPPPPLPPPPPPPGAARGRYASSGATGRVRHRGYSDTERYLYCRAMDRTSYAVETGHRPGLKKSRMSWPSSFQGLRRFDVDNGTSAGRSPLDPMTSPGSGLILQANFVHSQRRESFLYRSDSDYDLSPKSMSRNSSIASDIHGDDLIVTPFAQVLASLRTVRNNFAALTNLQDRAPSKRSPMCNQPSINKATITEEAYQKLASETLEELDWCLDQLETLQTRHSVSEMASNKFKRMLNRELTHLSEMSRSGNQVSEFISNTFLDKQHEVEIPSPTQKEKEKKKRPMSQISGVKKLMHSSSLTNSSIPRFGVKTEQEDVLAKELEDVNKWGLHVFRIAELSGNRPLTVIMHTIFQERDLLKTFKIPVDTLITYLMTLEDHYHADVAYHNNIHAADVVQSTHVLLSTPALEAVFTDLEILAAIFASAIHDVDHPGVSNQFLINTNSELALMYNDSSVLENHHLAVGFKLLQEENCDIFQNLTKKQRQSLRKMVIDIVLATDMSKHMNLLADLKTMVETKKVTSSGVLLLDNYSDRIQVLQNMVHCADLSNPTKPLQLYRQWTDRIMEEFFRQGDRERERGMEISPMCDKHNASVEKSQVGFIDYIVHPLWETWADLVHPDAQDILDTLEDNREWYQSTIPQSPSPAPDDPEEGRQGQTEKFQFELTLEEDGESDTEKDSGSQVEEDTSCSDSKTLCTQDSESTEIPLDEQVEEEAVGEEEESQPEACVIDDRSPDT
T6 sequence (Q07343 whole entry): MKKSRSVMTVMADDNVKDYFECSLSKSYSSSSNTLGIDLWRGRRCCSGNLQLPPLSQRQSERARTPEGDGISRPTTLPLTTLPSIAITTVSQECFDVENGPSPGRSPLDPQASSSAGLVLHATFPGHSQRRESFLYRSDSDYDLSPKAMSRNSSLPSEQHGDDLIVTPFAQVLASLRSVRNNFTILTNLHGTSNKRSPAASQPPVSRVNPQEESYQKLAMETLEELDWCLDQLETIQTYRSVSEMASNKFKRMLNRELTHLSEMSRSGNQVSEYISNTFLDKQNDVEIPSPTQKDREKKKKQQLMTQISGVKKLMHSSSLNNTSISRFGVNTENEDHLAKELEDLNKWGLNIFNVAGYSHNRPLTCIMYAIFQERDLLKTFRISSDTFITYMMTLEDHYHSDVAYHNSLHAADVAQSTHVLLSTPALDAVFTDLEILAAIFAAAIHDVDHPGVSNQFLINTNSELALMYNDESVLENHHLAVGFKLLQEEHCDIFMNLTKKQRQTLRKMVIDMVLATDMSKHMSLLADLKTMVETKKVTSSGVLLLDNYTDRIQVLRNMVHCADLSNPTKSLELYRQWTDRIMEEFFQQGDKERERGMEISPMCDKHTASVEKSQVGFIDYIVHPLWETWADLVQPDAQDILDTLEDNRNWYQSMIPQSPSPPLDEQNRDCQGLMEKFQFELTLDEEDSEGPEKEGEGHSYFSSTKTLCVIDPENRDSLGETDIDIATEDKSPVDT
T3 sequence (P27815 whole entry): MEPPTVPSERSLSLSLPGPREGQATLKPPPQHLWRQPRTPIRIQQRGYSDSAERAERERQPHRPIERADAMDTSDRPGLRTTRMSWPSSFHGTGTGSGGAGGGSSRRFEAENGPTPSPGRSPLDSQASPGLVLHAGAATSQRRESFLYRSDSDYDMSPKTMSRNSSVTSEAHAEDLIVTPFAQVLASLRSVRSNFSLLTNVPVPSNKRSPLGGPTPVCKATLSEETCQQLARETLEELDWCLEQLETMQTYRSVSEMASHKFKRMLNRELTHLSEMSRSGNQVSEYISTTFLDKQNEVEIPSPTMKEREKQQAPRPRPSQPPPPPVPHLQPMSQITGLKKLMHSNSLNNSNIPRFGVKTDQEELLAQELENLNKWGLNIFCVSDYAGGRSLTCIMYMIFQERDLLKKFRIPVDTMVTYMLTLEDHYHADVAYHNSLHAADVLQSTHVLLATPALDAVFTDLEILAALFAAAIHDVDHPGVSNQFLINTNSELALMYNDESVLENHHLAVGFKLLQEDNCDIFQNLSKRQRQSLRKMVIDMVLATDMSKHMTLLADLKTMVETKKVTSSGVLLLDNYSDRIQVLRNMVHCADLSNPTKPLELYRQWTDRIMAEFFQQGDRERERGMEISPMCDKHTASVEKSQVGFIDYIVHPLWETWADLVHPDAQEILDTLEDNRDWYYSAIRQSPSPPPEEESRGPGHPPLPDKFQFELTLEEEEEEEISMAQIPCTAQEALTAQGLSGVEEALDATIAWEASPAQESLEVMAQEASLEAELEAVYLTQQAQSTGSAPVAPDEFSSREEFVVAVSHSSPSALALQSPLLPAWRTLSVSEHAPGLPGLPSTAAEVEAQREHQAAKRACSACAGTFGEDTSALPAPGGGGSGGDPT
T5 sequence (Q08493 whole entry): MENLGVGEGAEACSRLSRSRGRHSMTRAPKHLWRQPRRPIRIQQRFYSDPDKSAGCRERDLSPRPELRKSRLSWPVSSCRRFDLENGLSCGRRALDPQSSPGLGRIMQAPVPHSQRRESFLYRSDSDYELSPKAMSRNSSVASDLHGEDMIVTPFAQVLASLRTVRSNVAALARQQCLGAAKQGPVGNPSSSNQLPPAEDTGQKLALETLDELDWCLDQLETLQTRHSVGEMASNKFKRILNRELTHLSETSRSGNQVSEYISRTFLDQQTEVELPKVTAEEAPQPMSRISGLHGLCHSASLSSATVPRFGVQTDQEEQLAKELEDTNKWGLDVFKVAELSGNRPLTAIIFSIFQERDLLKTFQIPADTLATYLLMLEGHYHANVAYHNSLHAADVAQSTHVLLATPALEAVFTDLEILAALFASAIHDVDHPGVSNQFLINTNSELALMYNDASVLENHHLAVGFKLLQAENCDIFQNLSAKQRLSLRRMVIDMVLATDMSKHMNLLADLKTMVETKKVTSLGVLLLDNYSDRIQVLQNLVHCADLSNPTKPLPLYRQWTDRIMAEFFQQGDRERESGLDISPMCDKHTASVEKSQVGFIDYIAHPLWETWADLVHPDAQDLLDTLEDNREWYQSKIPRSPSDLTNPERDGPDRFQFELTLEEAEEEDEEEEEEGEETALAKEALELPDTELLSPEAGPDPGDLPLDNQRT

CC(=O)CCCCn1c(=O)c2c(ncn2C)n(C)c1=O [Pentoxifylline, pentoxifylline]
IC50 (PDE1): 236 ± 20 µM
IC50 (PDE2): 119 ± 10 µM
IC50 (PDE4 [1]): 135 ± 11 µM
Inhibition rate of LPS-induced TNFα secretion (PBLs from MRL/lpr mice): 51%
Median survival time (MRL/lpr lupus-prone mice): 27.5 weeks
Mice with positive proteinuria (MRL/lpr lupus-prone mice): around 50%
Proteinuria level compared to the control group (MRL/lpr lupus-prone mice): significantly lower
Age at which treated mice started dying (MRL/lpr lupus-prone mice): 22 weeks
IC50 (PDE5): 74 ± 6 µM

CCCCn1c(=O)c2c(ncn2CC(C)=O)n(CCCC)c1=O [Denbufylline, denbufylline]
IC50 (PDE1): 133 ± 11 µM
IC50 (PDE4 [1]): 0.76 ± 0.05 µM
Inhibition rate of LPS-induced TNFα secretion (PBLs from MRL/lpr mice): 70%
Median survival time (MRL/lpr lupus-prone mice): 26.5 weeks
Mice with positive proteinuria (MRL/lpr lupus-prone mice): around 50%
Age at which treated mice started dying (MRL/lpr lupus-prone mice): 15 weeks

CNc1nc(C(F)(F)F)nc2c1ncn2Cc1ccccc1F [NCS 613]
IC50 (PDE1): 39 ± 2 µM
IC50 (human recombinant PDE4A): 0.044 µM
IC50 (human recombinant PDE4A; [5]): 0.0436 µM
IC50 (human recombinant PDE4D): 0.014 µM
IC50 (human recombinant PDE4D; [5]): 0.0144 µM
Ki [2]: 0.148 µM
IC50 (PDE2): 24 ± 3 µM
Induction of acid gastric secretion (acid gastric secretion): does not induce
PDE4 selectivity relatively to PDE1 (PDE4 [1]): 930 fold
PDE4 selectivity relatively to PDE5 (PDE4 [1]): 112 fold
IC50 (PDE4 [1]): 0.042 ± 0.003 µM
PDE5/PDE4 ratio (PDE4 [1]; ratio of IC50 values PDE5/PDE4): 111.9
IC50 (PDE4 [3]): 0.042 µM
Inhibition rate of LPS-induced TNFα secretion (PBLs from MRL/lpr mice): 54%
Solubility in PBS-10% ethanol [4]: not soluble
IC50 (human recombinant PDE4C): 0.0014 µM
Decrease of basal TNFα secretion level (PBLs from SLE patients; 10 µM, no LPS, cells from patient 2): 67%
Effect on LPS-induced TNFα production (PBLs from SLE patients; patient SLE1, 0.1 µM): No effect
Effect on LPS-induced TNFα production (PBLs from SLE patients; patient SLE1, 1 µM): significantly suppressed
Effect on LPS-induced TNFα production (PBLs from SLE patients; patient SLE1, 10 µM): significantly suppressed
Age of the first mouse that developed proteinuria (MRL/lpr lupus-prone mice; 30 µg i.v. at 5, 7, 9 and 13 weeks): 18 week-old
Effect on survival of MRL/lpr mice (MRL/lpr lupus-prone mice; 30 µg i.v. at 5, 7, 9 and 13 weeks, P = 0.005): significantly increased
Mice still alive (MRL/lpr lupus-prone mice; at 31 weeks, 30 µg i.v. at 5, 7, 9 and 13 weeks): 50%
Proteinuria level compared to the control group (MRL/lpr lupus-prone mice): significantly lower
Age at which treated mice started dying (MRL/lpr lupus-prone mice): 26 weeks
IC50 (human PBLs): 0.018 µM
IC50 (PDE5): 4.7 ± 0.1 µM
IC50 (human recombinant PDE4B): 0.048 µM
IC50 (human recombinant PDE4B; [5]): 0.0481 µM
IC50 (PDE3): > 300 µM
